Laboratory results published in the NIST ThermoML archive (doi:10.1021/je900719z).

Conditions: Liquid, Ebulliometric method (Recirculating still)

CCO [ethanol]
Conditions | vapor or sublimation pressure [kPa]
325.48 K | 33
326.03 K | 33.9
326.48 K | 34.6
326.93 K | 35.3
327.33 K | 36
327.8 K | 36.8
328.26 K | 37.6
328.73 K | 38.4
329.18 K | 39.2
329.62 K | 40
330.11 K | 40.9
330.62 K | 41.9
331.16 K | 42.9
331.66 K | 43.9
332.17 K | 44.9
332.68 K | 45.9
333.15 K | 46.9
333.86 K | 48.4
334.55 K | 49.9
335.17 K | 51.3
335.84 K | 52.8
336.28 K | 53.85
336.81 K | 55.13
337.31 K | 56.32
337.86 K | 57.69
338.32 K | 58.87
338.97 K | 60.49
339.47 K | 61.82
339.99 K | 63.19
340.47 K | 64.47
340.82 K | 65.48
341.18 K | 66.45
341.68 K | 67.91
342.01 K | 68.92
342.53 K | 70.35
343.05 K | 71.88
343.54 K | 73.35
343.97 K | 74.68
344.41 K | 76.08
344.93 K | 77.68
345.3 K | 78.95
345.77 K | 80.44
346.17 K | 81.82
346.75 K | 83.74
347.17 K | 85.17
347.51 K | 86.38
347.91 K | 87.78
348.29 K | 89.17
348.62 K | 90.34
349.03 K | 91.82
349.36 K | 93.08
349.67 K | 94.24
350.05 K | 95.68
350.44 K | 97.16
350.82 K | 98.63
351.17 K | 100.02
351.51 K | 101.38
351.76 K | 102.37
352.07 K | 103.64
352.45 K | 105.17
352.79 K | 106.59
353.15 K | 108.08
353.5 K | 109.58
353.79 K | 110.8
354.14 K | 112.36
354.46 K | 113.75
354.82 K | 115.35
355.15 K | 116.81
355.51 K | 118.44
355.85 K | 120.01
356.22 K | 121.68
356.54 K | 123.23
356.81 K | 124.46
357.16 K | 126.16
357.48 K | 127.68
357.89 K | 129.67

O [water]
Conditions | vapor or sublimation pressure [kPa]
333.02 K | 19.55
333.56 K | 20.05
334.08 K | 20.55
334.59 K | 21.05
335.15 K | 21.6
335.64 K | 22.1
336.11 K | 22.6
336.66 K | 23.15
337.12 K | 23.65
337.65 K | 24.22
338.13 K | 24.75
338.6 K | 25.3
339.12 K | 25.9
339.62 K | 26.45
340.15 K | 27.1
340.63 K | 27.7
341.25 K | 28.45
341.67 K | 29
342.13 K | 29.6
342.71 K | 30.33
343.17 K | 30.95
343.73 K | 31.72
344.21 K | 32.4
344.73 K | 33.15
345.22 K | 33.85
345.66 K | 34.5
346.11 K | 35.15
346.61 K | 35.9
347.15 K | 36.75
347.62 K | 37.5
348.15 K | 38.32
348.22 K | 38.47
348.65 K | 39.18
349.17 K | 40.04
349.68 K | 40.88
350.22 K | 41.85
350.66 K | 42.59
351.18 K | 43.5
351.67 K | 44.39
352.13 K | 45.28
352.64 K | 46.19
353.13 K | 47.14
353.65 K | 48.15
354.12 K | 49.06
354.63 K | 50.07
355.13 K | 51.1
355.71 K | 52.36
356.14 K | 53.24
356.65 K | 54.34
357.13 K | 55.42
357.69 K | 56.64
358.16 K | 57.69
358.65 K | 58.78
359.19 K | 60.08
359.62 K | 61.09
360.26 K | 62.64
360.74 K | 63.82
361.2 K | 64.95
361.61 K | 65.98
362.13 K | 67.33
362.71 K | 68.85
363.17 K | 70.05
363.72 K | 71.54
364.28 K | 73.07
364.75 K | 74.38
365.34 K | 76.08
365.84 K | 77.53
366.34 K | 78.95
366.86 K | 80.58
367.35 K | 82.03
367.83 K | 83.48
368.33 K | 85.04
368.8 K | 86.54
369.27 K | 88.07
369.69 K | 89.44
370.03 K | 90.54
370.62 K | 92.52
371.09 K | 94.12
371.52 K | 95.59
371.94 K | 97.02
372.36 K | 98.48
372.78 K | 100.03
373.16 K | 101.39
373.59 K | 103
374 K | 104.48
374.39 K | 105.94
374.82 K | 107.57
375.18 K | 108.97
375.6 K | 110.58
376.1 K | 112.55
376.46 K | 113.99
376.86 K | 115.58
377.21 K | 117.02
377.57 K | 118.54
377.92 K | 119.94
378.29 K | 121.58
378.65 K | 123.07
378.99 K | 124.48
379.33 K | 126.01
379.71 K | 127.64
380 K | 128.92
380.36 K | 130.53
380.74 K | 132.25
